ChEMBL document CHEMBL5625261, “Cytotoxic effects of kinetin riboside and its selected analogues on cancer cell lines” (Bioorg Med Chem Lett, 2024)

Experiments:
Caco-2 [1] = assay: Cytotoxicity against human Caco-2 cells assessed as reduction in cell viability incubated for 72 hrs by MTT assay; type: functional, cell-based; conditions: Caco-2, 72 h
MCF7 [2] = assay: Cytotoxicity against human MCF7 cells assessed as reduction in cell viability incubated for 48 hrs by MTT assay; type: functional, cell-based; conditions: MCF7, 48 h
OVCAR-3 [3] = assay: Cytotoxicity against human OVCAR-3 cells assessed as reduction in cell viability incubated for 24 hrs by MTT assay; type: functional, cell-based; conditions: OVCAR-3, 24 h
MCF7 [4] = assay: Cytotoxicity against human MCF7 cells assessed as reduction in cell viability incubated for 72 hrs by MTT assay; type: functional, cell-based; conditions: MCF7, 72 h
[5] = Cytotoxicity against human MRC5 cells assessed as reduction in cell viability incubated for 24 hrs by MTT assay; type: toxicity, cell-based
[6] = Cytotoxicity against human MRC5 cells assessed as reduction in cell viability incubated for 72 hrs by MTT assay; type: toxicity, cell-based
HeLa [7] = assay: Cytotoxicity against human HeLa cells assessed as reduction in cell viability incubated for 24 hrs by MTT assay; type: functional, cell-based
MCF7 [8] = assay: Cytotoxicity against human MCF7 cells assessed as reduction in cell viability incubated for 24 hrs by MTT assay; type: functional, cell-based; conditions: MCF7, 24 h
[9] = Cytotoxicity against human MRC5 cells assessed as reduction in cell viability incubated for 48 hrs by MTT assay; type: toxicity, cell-based
Caco-2 [10] = assay: Cytotoxicity against human Caco-2 cells assessed as reduction in cell viability incubated for 48 hrs by MTT assay; type: functional, cell-based; conditions: Caco-2, 48 h
MIA PaCa-2 [11] = assay: Cytotoxicity against human MIA PaCa-2 cells assessed as reduction in cell viability incubated for 48 hrs by MTT assay; type: functional, cell-based; conditions: MIA PaCa-2, 48 h
MIA PaCa-2 [12] = assay: Cytotoxicity against human MIA PaCa-2 cells assessed as reduction in cell viability incubated for 72 hrs by MTT assay; type: functional, cell-based; conditions: MIA PaCa-2, 72 h
Caco-2 [13] = assay: Cytotoxicity against human Caco-2 cells assessed as reduction in cell viability incubated for 24 hrs by MTT assay; type: functional, cell-based; conditions: Caco-2, 24 h
HeLa [14] = assay: Cytotoxicity against human HeLa cells assessed as reduction in cell viability incubated for 72 hrs by MTT assay; type: functional, cell-based
HeLa [15] = assay: Cytotoxicity against human HeLa cells assessed as reduction in cell viability incubated for 48 hrs by MTT assay; type: functional, cell-based
OVCAR-3 [16] = assay: Cytotoxicity against human OVCAR-3 cells assessed as reduction in cell viability incubated for 72 hrs by MTT assay; type: functional, cell-based; conditions: OVCAR-3, 72 h
MIA PaCa-2 [17] = assay: Cytotoxicity against human MIA PaCa-2 cells assessed as reduction in cell viability incubated for 24 hrs by MTT assay; type: functional, cell-based; conditions: MIA PaCa-2, 24 h
OVCAR-3 [18] = assay: Cytotoxicity against human OVCAR-3 cells assessed as reduction in cell viability incubated for 48 hrs by MTT assay; type: functional, cell-based; conditions: OVCAR-3, 48 h
MIA PaCa-2 [19] = assay: Cytotoxicity against human MIA PaCa-2 cells assessed as reduction in cell viability at 100 uM incubated for 72 hrs by MTT assay relative to control; type: functional
MIA PaCa-2 [20] = assay: Cytotoxicity against human MIA PaCa-2 cells assessed as reduction in cell viability at 100 uM incubated for 24 hrs by MTT assay relative to control; type: functional

Compound | IC50 (Caco-2 [1]) [µM] | IC50 (MCF7 [2]) [µM] | IC50 (OVCAR-3 [3]) [µM] | IC50 (MCF7 [4]) [µM] | IC50 at 24 h [5] [µM] | IC50 at 72 h [6] [µM] | IC50 (HeLa [7]) [µM] | IC50 (MCF7 [8]) [µM] | IC50 at 48 h [9] [µM] | IC50 (Caco-2 [10]) [µM] | IC50 (MIA PaCa-2 [11]) [µM] | IC50 (MIA PaCa-2 [12]) [µM] | IC50 (Caco-2 [13]) [µM] | IC50 (HeLa [14]) [µM] | IC50 (HeLa [15]) [µM] | IC50 (OVCAR-3 [16]) [µM] | IC50 (MIA PaCa-2 [17]) [µM] | IC50 (OVCAR-3 [18]) [µM] | Activity (MIA PaCa-2 [19]) [%] | Activity (MIA PaCa-2 [20]) [%]
OC[C@H]1O[C@@H](n2cnc3c(NCc4cccs4)ncnc32)[C@H](O)[C@@H]1O | 5.9 | 3 | > 100 | 2.6 | 12.7 | 1.8 | > 100 | 20.8 | 2.1 | 10.5 | 1.2 | 1.1 | 16.9 | > 100 | > 100 | 1.5 | > 100 | 2.9 |  | 
OC[C@H]1O[C@@H](n2cnc3c(NCc4ccoc4)ncnc32)[C@H](O)[C@@H]1O | 6.5 | 2.2 | > 100 | 2.1 | 16 | 0.7 | > 100 | 12 | 1 | 13.1 | 1.4 | 1.1 | 18.5 | > 100 | > 100 | 1.8 | > 100 | 3.3 | ~90 | 40
OC[C@H]1O[C@@H](n2nnc3c(NCc4ccco4)ncnc32)[C@H](O)[C@@H]1O | 11.5 | 4.3 | > 100 | 3.8 | > 100 | 4.6 | > 100 | 27 | 11.7 | 18.7 | 2.8 | 1.1 | 25 | 4.6 | 14.5 | 1.1 | > 100 | 76 |  | 
OC[C@H]1O[C@@H](n2cnc3c(NCc4ccco4)ncnc32)[C@@H](O)[C@@H]1O | > 100 | > 100 | > 100 | > 100 | > 100 | > 100 | > 100 | > 100 | > 100 | > 100 | > 100 | > 100 | > 100 | > 100 | > 100 | > 100 | > 100 | > 100 |  | 
